The values that follow come from patent US20140249135A1, “PIM KINASE INHIBITORS AND METHODS OF THEIR USE” (NOVARTIS AG, priority 2007, published 2014).

Common to all, as to format: biochemical
In one assay the target is Pim1 kinase (Homo sapiens, UniProt P11309). Description: Pim1 ATP depletion assay.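 Note: Luciferase-luciferin luminescence readout of residual ATP after PIM1 transfers phosphate to a peptide substrate, 40 µM ATP added, reaction run to roughly half ATP consumption.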 To be noted: Pim1 ATP depletion assay; read-out: PIM1 IC50.
Chain of Pim1 kinase (P11309 whole entry): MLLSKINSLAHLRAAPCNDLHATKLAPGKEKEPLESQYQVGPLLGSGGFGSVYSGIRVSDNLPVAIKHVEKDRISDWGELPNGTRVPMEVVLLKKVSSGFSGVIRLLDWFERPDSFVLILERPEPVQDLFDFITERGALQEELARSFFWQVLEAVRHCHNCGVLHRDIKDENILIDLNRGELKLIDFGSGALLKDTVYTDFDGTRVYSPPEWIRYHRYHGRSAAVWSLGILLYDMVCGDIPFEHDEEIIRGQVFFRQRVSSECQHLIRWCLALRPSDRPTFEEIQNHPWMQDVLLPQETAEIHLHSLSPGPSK
Another assay deals with Pim2 kinase (Homo sapiens, UniProt Q9P1W9). Put plainly: Pim2 ATP depletion assay.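 Note: Luciferase-based luminescent readout of ATP remaining after PIM2 phosphorylates a BAD peptide, final 5 nM enzyme, 4 µM ATP, 10 µM peptide, 2.5% DMSO, run to roughly half ATP consumption.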 To be noted: read-out: PIM2 IC50.
Chain of Pim2 kinase (Q9P1W9 whole entry): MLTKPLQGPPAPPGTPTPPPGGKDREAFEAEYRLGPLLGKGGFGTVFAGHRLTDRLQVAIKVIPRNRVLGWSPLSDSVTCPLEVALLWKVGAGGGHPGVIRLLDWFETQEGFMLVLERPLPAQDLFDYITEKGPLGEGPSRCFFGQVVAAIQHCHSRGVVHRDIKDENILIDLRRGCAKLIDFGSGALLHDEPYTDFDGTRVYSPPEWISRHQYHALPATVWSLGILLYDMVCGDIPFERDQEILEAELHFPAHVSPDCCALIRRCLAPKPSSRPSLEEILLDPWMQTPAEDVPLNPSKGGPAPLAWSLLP
The target in another assay is Pim3 kinase (Homo sapiens, UniProt Q86V86). Put plainly: Pim3 ATP depletion assay. To be noted: read-out: PIM3 IC50.

pIC50: −log10 of the molar value.

In general, pIC50 refers to −log10 of the IC50, conventionally taken in molar units. `Nc1ccc(-c2ccccc2)nc1C(=O)Nc1cnccc1N1C[C@@H](N)C[C@@H](F)C1` [Example 578, 3-Amino-6-phenyl-pyridine-2-carboxylic acid (3-amino-5-fluoro-3,4,5,6-tetrahydro-2H-[1,4′]bipyridinyl-3′-yl)-amide]: the pIC50 at Pim1 kinase, on Pim2 kinase and at Pim3 kinase was over 6.00 each time.

With `CCCOc1ccc(F)c(-c2ccc(N)c(C(=O)Nc3cnccc3N3C[C@@H](N)C[C@H](O)C3)n2)c1` [Example 581, 3-Amino-6-(2-fluoro-5-propoxy-phenyl)-pyridine-2-carboxylic acid (3-amino-5-hydroxy-3,4,5,6-tetrahydro-2H-[1,4′]bipyridinyl-3′-yl)-amide], the pIC50 at Pim1 kinase, at Pim2 kinase and at Pim3 kinase was over 6.00 throughout.

Take `Nc1ccc(-c2ccccc2)nc1C(=O)Nc1cnccc1N1C[C@@H](N)C[C@H](O)C1` [Example 582, 3-Amino-6-phenyl-pyridine-2-carboxylic acid (3-amino-5-hydroxy-3,4,5,6-tetrahydro-2H-[1,4′]bipyridinyl-3′-yl)-amide]: the pIC50 was over 6.00 at Pim1 kinase, 5.00 to 6.00 at Pim2 kinase and over 6.00 on Pim3 kinase.

As for `COc1ncccc1-c1ccc(N)c(C(=O)Nc2cnccc2-c2ccccc2C)n1` [Example 584, 5-amino-2′-methoxy-[2,3′]bi-pyridinyl-6-carboxylic acid (4-o-tolyl-pyridin-3-yl)-amide], the pIC50 was over 6.00 on Pim1 kinase, 5.00 to 6.00 on Pim2 kinase and over 6.00 at Pim3 kinase.

As for `Cc1ccccc1-c1ccncc1NC(=O)c1nc(-c2c(F)cccc2F)ccc1N` [Example 585, 3-amino-6-(2,6-difluoro-phenyl)-pyridine-2-carboxylic acid (4-o-tolyl-pyridin-3-yl)-amide], the pIC50 on Pim1 kinase, on Pim2 kinase and on Pim3 kinase was over 6.00 each time.

For the molecule `Cc1ccccc1-c1ccncc1NC(=O)c1nc(-c2ccccc2F)ccc1N` [Example 586, 3-amino-6-(2-fluoro-phenyl)-pyridine-2-carboxylic acid (4-o-tolyl-pyridin-3-yl)-amide], the pIC50 on Pim1 kinase was over 6.00; at Pim2 kinase it was 5.00 to 6.00; at Pim3 kinase, over 6.00.

In the case of `Nc1ccc(-c2c(F)cccc2F)nc1C(=O)Nc1cnccc1N1CCCCC1` [Example 588, 3-amino-6-(2,6-difluoro-phenyl)-pyridine-2-carboxylic acid (3,4,5,6-tetrahydro-2H-[1,4′]bipyridinyl-3′-yl)-amide], the pIC50 at Pim1 kinase, on Pim2 kinase and on Pim3 kinase was over 6.00 in each case.

Regarding `Nc1ccc(-c2ccccc2F)nc1C(=O)Nc1cnccc1N1CCCCC1` [Example 589, 3-amino-6-(2-fluoro-phenyl)-pyridine-2-carboxylic acid (3,4,5,6-tetrahydro-2H-[1,4′]bipyridinyl-3′-yl)-amide], the pIC50 at Pim1 kinase, on Pim2 kinase and at Pim3 kinase was over 6.00 throughout.

As to `Nc1ncc(Br)nc1C(=O)Nc1cnccc1N1CCCC(N(Cc2ccccc2)Cc2ccccc2)C1` (stereo not drawn) [Example 599, 3-amino-6-bromo-pyrazine-2-carboxylic acid (3-dibenzylamino-3,4,5,6-tetrahydro-2H-[1,4′]bi-pyridinyl-3′-yl)-amide], the results for the pIC50 on Pim1 kinase, on Pim2 kinase and at Pim3 kinase were over 6.00, 5.00 to 6.00 and 5.00 to 6.00, respectively.

On to `Nc1ccc(-c2ccccc2F)nc1C(=O)Nc1cnccc1-c1cncc(F)c1` [Example 601, 3-amino-N-(5-fluoro-3,4′-bipyridin-3′-yl)-6-(2-fluorophenyl)pyridine-2-carboxamide], for which the pIC50 at Pim1 kinase, on Pim2 kinase and on Pim3 kinase was over 6.00 each time.

For `Nc1ccc(-c2ccccc2F)nc1C(=O)Nc1cnccc1-c1cncnc1` [Example 602, 3-amino-6-(2-fluorophenyl)-N-(4-pyrimidin-5-ylpyridin-3-yl)pyridine-2-carboxamide], the pIC50 was over 6.00 on Pim1 kinase, 5.00 to 6.00 on Pim2 kinase and over 6.00 on Pim3 kinase.

Take `Nc1ccc(-c2ccccc2F)nc1C(=O)Nc1cnccc1-c1cnc(N)c(C(F)(F)F)c1` [Example 603, 3-amino-N-[6-amino-5-(tri-fluoromethyl)-3,4′-bipyridin-3′-yl]-6-(2-fluorophenyl)pyridine-2-carboxamide]: the pIC50 at Pim1 kinase, on Pim2 kinase and at Pim3 kinase was over 6.00 throughout.

For `Nc1ccc(-c2ccncc2NC(=O)c2nc(-c3ccccc3F)ccc2N)cn1` [Example 604, 3-amino-N-(6-amino-3,4′-bipyridin-3′-yl)-6-(2-fluoro-phenyl)pyridine-2-carboxamide], the pIC50 at Pim1 kinase, on Pim2 kinase and at Pim3 kinase was over 6.00 in each case.

For the molecule `Nc1cc(-c2ccncc2NC(=O)c2nc(-c3ccccc3F)ccc2N)ccn1` [Example 605, 3-amino-N-(2′-amino-4,4′-bipyridin-3-yl)-6-(2-fluorophenyl)pyridine-2-carboxamide], the negative-log IC50 (pIC50) on Pim1 kinase, at Pim2 kinase and on Pim3 kinase was over 6.00 each time.

With `Nc1ccc(-c2ccccc2F)nc1C(=O)Nc1cnccc1-c1ccncc1` [Example 606, 3-amino-N-4,4′-bipyridin-3-yl-6-(2-fluorophenyl)-pyridine-2-carboxamide], the pIC50 on Pim1 kinase, on Pim2 kinase and at Pim3 kinase was over 6.00 each time.

On to `Nc1ccc(-c2c(F)cccc2F)nc1C(=O)Nc1cnccc1-c1cc(F)nc(F)c1` [Example 607, 3-amino-N-(2′,6′-difluoro-4,4′-bipyridin-3-yl)-6-(2,6-difluorophenyl)pyridine-2-carboxamide], for which the pIC50 at Pim1 kinase, at Pim2 kinase and at Pim3 kinase was over 6.00 throughout.

`COc1cc(-c2ccncc2NC(=O)c2nc(-c3c(F)cccc3F)ccc2N)cc(N)n1` [Example 608, 3-Amino-6-(2,6-difluoro-phenyl)-pyridine-2-carboxylic acid (6′-amino-2′-methoxy-[4,4′]bi-pyridinyl-3-yl)-amide]: the pIC50 on Pim1 kinase, on Pim2 kinase and at Pim3 kinase was over 6.00 in each case.

Take `COc1cncc(-c2ccncc2NC(=O)c2nc(-c3ccccc3F)ccc2N)c1` [Example 609, 3-amino-6-(2-fluorophenyl)-N-(5-methoxy-3,4′-bipyridin-3′-yl)pyridine-2-carboxamide]: the pIC50 at Pim1 kinase, on Pim2 kinase and on Pim3 kinase was over 6.00 in each case.

On to `COc1cnccc1-c1ccncc1NC(=O)c1nc(-c2ccccc2F)ccc1N` [Example 610, 3-amino-6-(2-fluorophenyl)-N-(3′-methoxy-4,4′-bipyridin-3-yl)pyridine-2-carboxamide], for which the pIC50 at Pim1 kinase, at Pim2 kinase and on Pim3 kinase was over 6.00 each time.

For `COc1ncccc1-c1ccncc1NC(=O)c1nc(-c2ccccc2F)ccc1N` [Example 611, 3-amino-6-(2-fluorophenyl)-N-(2-methoxy-3,4′-bipyridin-3′-yl)pyridine-2-carboxamide], the negative logarithm of the IC50 (pIC50) at Pim1 kinase, on Pim2 kinase and on Pim3 kinase was over 6.00 throughout.
